According to patent publication US20080039528A1, “Zinc finger ejectors and methods of use thereof” (KANSAS STATE UNIVERSITY RESEARCH FOUNDATION, priority 2004, published 2008):
Like-named read-outs stand apart in the source and are kept apart here.

How the values were obtained:
P. falciparum D6 = assay: Inhibition of the growth of P. falciparum D6 clone ([3H]-hypoxanthine uptake); format: cell-based, Plasmodium falciparum; settings: for inhibitory activities (in words): P. falciparum D6 and W2 and L. donovani parasites, summary statement; for IC50: read-out: D6, IC50; for IC90: read-out: D6, IC90
Method: (§1) Inhibition of the growth of P. falciparum. A reported method for the inhibition of the growth of P. falciparum was followed. The incubation period of the parasites was 66 h and the starting parasitemia was 0.2% with a 1% hematocrit. The medium used was RPMI-1640 culture medium with no folate or p-aminobenzoic acid and 10% normal heat-inactivated human plasma, and P. falciparum D6 and W2 clones were used. D6 is a clone from the Sierra I/UNC isolates and is susceptible to chloroquine and pyrimethamine but has reduced susceptibilities to mefloquine and halofantrine. W2 is a clone of the Indochina I isolate and is resistant to chloroquine and pyrimethamine but susceptible to mefloquine. […] The diluted compounds were transferred ([…]) to test plates, 200 µL of parasitized erythrocytes (0.2% parasitemia and 1% hematocrit) was added, and was incubated at 37° C. in a controlled environment of 5% CO2, 5% O2, and 90% N2. After 42 h, 25 µL of [^3H]-hypoxanthine was added and the plates were incubated for an additional 24 h. The plates were then frozen at −70° C. to lyse the red cells and later thawed and harvested onto glass fiber filter mats by using a 96-well cell harvester. The filter mats were counted in a scintillation counter and the data were downloaded with the custom, automated analysis software developed by WRAIR. For each compound, the concentration-response profile was determined and 50% inhibitory concentrations (IC50) were determined by using a nonlinear, logistic dose-response analysis program.

P. falciparum W2 = assay: Inhibition of the growth of P. falciparum W2 clone ([3H]-hypoxanthine uptake); format: cell-based, Plasmodium falciparum; settings: for IC50: read-out: W2, IC50; for IC90: read-out: W2, IC90
Method: as §1

[1] = system: L. donovani axenic amastigote-like parasites; assay: Inhibition of the growth of L. donovani axenic amastigotes (3-day CellTiter 96 assay); format: cell-based, Leishmania donovani; settings: 3-day assay
Method: Inhibition of the growth of L. donovani parasites. A reported method for the inhibition of the growth of L. donovani parasites was followed. L. donovani axenic amastigotes were maintained in modified RPMI medium as previously described. Inhibition of growth by the compounds was measured in a 3-day assay using the tetrazolium dye-based CellTiter 96 Aqueous Non-Radioactive Cell Proliferation Assay Kit (Promega, Madison, Wis., USA) as previously described. The known anti-leishmaniasis drug, pentamidine, was used as a control.

Solubility (qualitative) = format: physicochemical
[2] = Plasmodium falciparum, D6, 66 h, P. falciparum D6 intraerythrocytic forms, 66 h incubation
[3] = Plasmodium falciparum, W2, 66 h, P. falciparum W2 intraerythrocytic forms, 66 h incubation
[4] = Plasmodium falciparum, P. falciparum W2 intraerythrocytic forms, 66 h incubation
[5] = P. falciparum D6 intraerythrocytic forms, 66 h incubation
[6] = P. falciparum W2 intraerythrocytic forms, 66 h incubation
[7] = Plasmodium falciparum, D6, 66 h
[8] = Plasmodium falciparum, W2, 66 h

Row | IC50 (P. falciparum D6; [2]) [nM] | IC50 (P. falciparum W2; [3]) [nM] | IC50 (P. falciparum D6; [5]) [nM] | IC50 (P. falciparum W2; [6]) [nM] | Compound | inhibitory activities (in words) (P. falciparum D6) | other results
1 | > 60000 | > 60000 |  |  | O=C(O)c1ccc(OC/C=C/COc2ccc(C(=O)O)cc2)cc1 [Biscarboxylic acid 8, trans-1,4-Bis-[4-(hydroxycarbonyl)phenoxy]-2-butene] | do not show inhibitory activities | 
2 | 13 |  |  |  | OC(c1cc(C(F)(F)F)nc2c(C(F)(F)F)cccc12)C1CCCCN1 (centres unmarked) [Mefloquine, reference compound] |  | IC90 (P. falciparum D6; [2]): 240 nM; IC50 (P. falciparum W2; Plasmodium falciparum, W2, P. falciparum W2, value in nM): 8 nM; IC90 (P. falciparum W2; [4]): 15 nM
3 | 690 | 1050 |  |  | O=C(NO)c1ccc(OC/C=C/COc2ccc(C(=O)NO)cc2)cc1 [Bishydroxamic acid 2, trans-1,4-Bis[4-(hydroxyaminocarbonyl)phenoxy]-2-butene] |  | IC90 (P. falciparum D6; [2]): 1800 nM; IC90 (P. falciparum W2; [4]): 2570 nM
4 |  |  | > 38000 | > 38000 | O=C(O)c1ccc(OCCOCCOc2ccc(C(=O)O)cc2)cc1 [Biscarboxylic acid 10, 2,2′-Bis-[(4-hydroxycarbonyl)phenoxy]ethyl ether] | do not show inhibitory activities | IC50 [1]: > 100000 nM
5 | > 60000 | > 60000 |  |  | O=C(O)c1ccc(OCCCCCOc2ccc(C(=O)O)cc2)cc1 [Biscarboxylic acid 6, 1,5-Bis-[4-(hydroxycarbonyl)phenoxy]pentane] | do not show inhibitory activities | 
6 |  |  | 260 | 360 | O=C([N-]O)c1ccc(OCCOCCOc2ccc(C(=O)[N-]O)cc2)cc1.[Na+].[Na+] [Bishydroxamic acid sodium salt 12, 2,2′-Bis-[(4-hydroxy-sodio-aminocarbonyl)phenoxy]ethyl ether] |  | IC90 (P. falciparum D6; [5]): 520 nM; IC90 (P. falciparum W2; [6]): 600 nM; IC50 [1]: 37400 ± 14000 nM; solubility in water (Solubility (qualitative)): soluble in water
7 | > 60000 | > 60000 |  |  | COC(=O)c1ccc(OCCCCCOc2ccc(C(=O)OC)cc2)cc1 [Bisester 5, 1,5-Bis-(4-methoxycarbonylphenoxy)pentane] | do not show inhibitory activities | 
8 |  |  | 2200 | 3200 | O=C(NO)c1ccc(OCCCCCOc2ccc(C(=O)NO)cc2)cc1 [Bishydroxamic acid 1, 1,5-Bis-[4-(hydroxyaminocarbonyl)phenoxy]pentane] |  | IC90 (P. falciparum D6; [5]): 6200 nM
9 |  |  | 240 | 350 | O=C(NO)c1ccc(OCCOCCOc2ccc(C(=O)NO)cc2)cc1 [Bishydroxamic acid 3, 2,2′-Bis-[(4-hydroxyaminocarbonyl)phenoxy]ethyl ether] |  | IC90 (P. falciparum D6; [5]): 470 nM; IC90 (P. falciparum W2; [6]): 600 nM; IC50 [1]: 18500 ± 6000 nM; solubility in DMSO (Solubility (qualitative); DMSO): soluble in DMSO; solubility in water (Solubility (qualitative)): only slightly soluble in water
10 | > 60000 | > 60000 |  |  | COC(=O)c1ccc(OC/C=C/COc2ccc(C(=O)OC)cc2)cc1 [Bisester 7, trans-1,4-Bis-(4-methoxycarbonylphenoxy)-2-butene] | do not show inhibitory activities | 
11 |  |  |  |  | CCN(CC)CCCC(C)Nc1ccnc2cc(Cl)ccc12 (centres unmarked) [Chloroquine, reference compound] |  | IC50 (P. falciparum D6; [7]): 13 nM; IC90 (P. falciparum D6; [7]): 14 nM; IC50 (P. falciparum W2; [8]): 450 nM; IC90 (P. falciparum W2; [8]): 650 nM
12 |  |  | 1000 | 1090 | O=C([N-]O)c1ccc(OCCCCCOc2ccc(C(=O)[N-]O)cc2)cc1.[Na+].[Na+] [Bishydroxamic acid sodium salt 11, 1,5-Bis-[4-(hydroxy-sodio-aminocarbonyl)phenoxy]pentane] |  | IC90 (P. falciparum D6; [5]): 2000 nM; solubility in water (Solubility (qualitative)): soluble in water
13 |  |  |  |  | N=C(N)c1ccc(OCCCCCOc2ccc(C(=N)N)cc2)cc1 [Pentamidine, reference compound] |  | IC50 ([1]; Leishmania donovani, 72 h): 1190 ± 120 nM

Row | Compound | IC50 (P. falciparum D6; [2]) [nM] | IC50 (P. falciparum W2; [3]) [nM] | IC50 (P. falciparum D6; [5]) [nM] | IC50 (P. falciparum W2; [6]) [nM] | inhibitory activities (in words) (P. falciparum D6) | other results
14 | COC(=O)c1ccc(OCCOCCOc2ccc(C(=O)OC)cc2)cc1 [Bisester 9, 2,2′-Bis-(4-methoxycarbonylphenoxy)ethyl ether] |  |  | > 60000 | > 60000 | do not show inhibitory activities | IC50 [1]: > 100000 nM
